Reference: ChEMBL document CHEMBL5360652, “Drug Discovery Targeting Nuclear Receptor Binding SET Domain Protein 2 (NSD2)” (J Med Chem, 2023)
Where a name gives a salt, the structure may show the parent alone. Values belong to the compound of their own block, whether it stands above or below them.

Experiments:
[1] = target: T1, Histone-lysine N-methyltransferase NSD2 (Homo sapiens) (UniProt O96028); experiment: Induction of degradation of NSD2 in human U2OS cells assessed as maximum degradation relative to control; assay type: cell-based
T1 sequence (whole entry): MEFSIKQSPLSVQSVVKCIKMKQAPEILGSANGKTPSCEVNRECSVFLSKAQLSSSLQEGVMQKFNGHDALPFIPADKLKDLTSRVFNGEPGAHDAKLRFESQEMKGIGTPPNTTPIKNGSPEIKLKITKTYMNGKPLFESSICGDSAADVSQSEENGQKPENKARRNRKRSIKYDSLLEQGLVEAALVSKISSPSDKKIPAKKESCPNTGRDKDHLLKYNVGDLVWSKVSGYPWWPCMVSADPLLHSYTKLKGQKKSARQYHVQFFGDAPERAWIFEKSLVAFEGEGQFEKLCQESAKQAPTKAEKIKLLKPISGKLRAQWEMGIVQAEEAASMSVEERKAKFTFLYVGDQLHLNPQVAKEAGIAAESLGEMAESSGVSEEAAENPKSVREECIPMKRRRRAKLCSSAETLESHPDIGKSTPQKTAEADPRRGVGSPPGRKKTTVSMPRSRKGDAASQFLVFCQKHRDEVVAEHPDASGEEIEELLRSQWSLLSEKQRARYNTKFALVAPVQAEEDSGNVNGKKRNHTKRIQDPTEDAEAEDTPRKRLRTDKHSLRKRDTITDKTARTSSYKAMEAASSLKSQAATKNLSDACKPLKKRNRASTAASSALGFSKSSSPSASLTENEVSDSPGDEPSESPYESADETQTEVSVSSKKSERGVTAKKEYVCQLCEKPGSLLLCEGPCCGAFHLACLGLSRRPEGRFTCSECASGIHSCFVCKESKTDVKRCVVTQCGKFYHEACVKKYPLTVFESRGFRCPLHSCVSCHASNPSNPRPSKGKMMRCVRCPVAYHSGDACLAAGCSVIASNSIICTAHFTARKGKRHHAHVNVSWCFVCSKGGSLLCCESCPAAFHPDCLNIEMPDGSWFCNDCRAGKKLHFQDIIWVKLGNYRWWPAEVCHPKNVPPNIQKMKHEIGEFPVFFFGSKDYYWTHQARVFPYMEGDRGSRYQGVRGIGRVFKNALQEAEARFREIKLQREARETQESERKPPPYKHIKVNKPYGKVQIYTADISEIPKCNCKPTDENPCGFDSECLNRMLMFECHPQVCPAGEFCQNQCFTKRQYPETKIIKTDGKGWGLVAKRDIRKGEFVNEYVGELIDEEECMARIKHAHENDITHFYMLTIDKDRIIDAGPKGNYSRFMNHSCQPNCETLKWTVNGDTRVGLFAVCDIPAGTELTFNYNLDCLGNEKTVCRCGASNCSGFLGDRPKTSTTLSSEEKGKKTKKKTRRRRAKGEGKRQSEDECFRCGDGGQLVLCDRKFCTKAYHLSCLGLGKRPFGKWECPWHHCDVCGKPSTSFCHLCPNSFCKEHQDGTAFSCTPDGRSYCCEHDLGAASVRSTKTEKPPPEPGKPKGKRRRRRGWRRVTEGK

[2] = target: T2, Histone-lysine N-methyltransferase NSD2 (Homo sapiens, UniProt O96028); experiment: Induction of degradation of NSD2 in human U2OS cells; assay type: cell-based
T2 sequence (O96028 whole entry): T1 sequence (whole entry)

[3] = target: T2, Histone-lysine N-methyltransferase NSD2; experiment: Binding affinity to NSD2 PWWP1 domain (unknown origin) assessed as dissociation constant by SPR assay
[4] = target: T3, Histone-lysine N-methyltransferase, H3 lysine-36 specific (Homo sapiens, UniProt Q96L73); experiment: Inhibition of human recombinant NSD1 incubated for 2 hrs by AlphaLISA method
[5] = target: T1, Histone-lysine N-methyltransferase NSD2 (Homo sapiens); experiment: Inhibition of NSD2 (unknown origin) at 50 uM relative to control
[6] = target: T2, Histone-lysine N-methyltransferase NSD2; experiment: Binding affinity to NSD2 PWWP1 domain (unknown origin) assessed as dissociation constant
[7] = target: T3, Histone-lysine N-methyltransferase, H3 lysine-36 specific; experiment: Binding affinity to NSD1 (unknown origin) assessed as dissociation constant by ITC assay
[8] = target: Histone-lysine N-methyltransferase NSD2 (Homo sapiens, UniProt O96028, T1150A); experiment: Inhibition of NSD2 T1150A mutant (unknown origin)
[9] = target: Histone-lysine N-methyltransferase NSD2 (Homo sapiens, UniProt O96028, E1099K); experiment: Inhibition of NSD2 E1099K mutant (unknown origin)
[10] = tested on: U2OS; experiment: Cytotoxicity against human U2OS cells assessed as cell growth inhibition; assay type: functional
[11] = target: Histone-lysine N-methyltransferase 2A (Homo sapiens) (UniProt Q03164); experiment: Inhibition of MLL1 (unknown origin) at 10 uM relative to control
[12] = target: Histone-lysine N-methyltransferase SETDB1 (Homo sapiens) (UniProt Q15047); experiment: Inhibition of SETDB1 (unknown origin) at 10 uM relative to control
[13] = target: T1, Histone-lysine N-methyltransferase NSD2 (Homo sapiens); experiment: Inhibition of NSD2 (unknown origin) at 10 uM relative to control
[14] = tested on: PC-3; experiment: Antiproliferative activity against human PC-3 cells assessed as cell growth inhibition incubated for 48 hrs by MTT assay; assay type: functional, cell-based; details: PC-3, 48 h
[15] = target: T2, Histone-lysine N-methyltransferase NSD2; experiment: Inhibition of NSD2 (unknown origin)

T3 sequence (Q96L73 whole entry): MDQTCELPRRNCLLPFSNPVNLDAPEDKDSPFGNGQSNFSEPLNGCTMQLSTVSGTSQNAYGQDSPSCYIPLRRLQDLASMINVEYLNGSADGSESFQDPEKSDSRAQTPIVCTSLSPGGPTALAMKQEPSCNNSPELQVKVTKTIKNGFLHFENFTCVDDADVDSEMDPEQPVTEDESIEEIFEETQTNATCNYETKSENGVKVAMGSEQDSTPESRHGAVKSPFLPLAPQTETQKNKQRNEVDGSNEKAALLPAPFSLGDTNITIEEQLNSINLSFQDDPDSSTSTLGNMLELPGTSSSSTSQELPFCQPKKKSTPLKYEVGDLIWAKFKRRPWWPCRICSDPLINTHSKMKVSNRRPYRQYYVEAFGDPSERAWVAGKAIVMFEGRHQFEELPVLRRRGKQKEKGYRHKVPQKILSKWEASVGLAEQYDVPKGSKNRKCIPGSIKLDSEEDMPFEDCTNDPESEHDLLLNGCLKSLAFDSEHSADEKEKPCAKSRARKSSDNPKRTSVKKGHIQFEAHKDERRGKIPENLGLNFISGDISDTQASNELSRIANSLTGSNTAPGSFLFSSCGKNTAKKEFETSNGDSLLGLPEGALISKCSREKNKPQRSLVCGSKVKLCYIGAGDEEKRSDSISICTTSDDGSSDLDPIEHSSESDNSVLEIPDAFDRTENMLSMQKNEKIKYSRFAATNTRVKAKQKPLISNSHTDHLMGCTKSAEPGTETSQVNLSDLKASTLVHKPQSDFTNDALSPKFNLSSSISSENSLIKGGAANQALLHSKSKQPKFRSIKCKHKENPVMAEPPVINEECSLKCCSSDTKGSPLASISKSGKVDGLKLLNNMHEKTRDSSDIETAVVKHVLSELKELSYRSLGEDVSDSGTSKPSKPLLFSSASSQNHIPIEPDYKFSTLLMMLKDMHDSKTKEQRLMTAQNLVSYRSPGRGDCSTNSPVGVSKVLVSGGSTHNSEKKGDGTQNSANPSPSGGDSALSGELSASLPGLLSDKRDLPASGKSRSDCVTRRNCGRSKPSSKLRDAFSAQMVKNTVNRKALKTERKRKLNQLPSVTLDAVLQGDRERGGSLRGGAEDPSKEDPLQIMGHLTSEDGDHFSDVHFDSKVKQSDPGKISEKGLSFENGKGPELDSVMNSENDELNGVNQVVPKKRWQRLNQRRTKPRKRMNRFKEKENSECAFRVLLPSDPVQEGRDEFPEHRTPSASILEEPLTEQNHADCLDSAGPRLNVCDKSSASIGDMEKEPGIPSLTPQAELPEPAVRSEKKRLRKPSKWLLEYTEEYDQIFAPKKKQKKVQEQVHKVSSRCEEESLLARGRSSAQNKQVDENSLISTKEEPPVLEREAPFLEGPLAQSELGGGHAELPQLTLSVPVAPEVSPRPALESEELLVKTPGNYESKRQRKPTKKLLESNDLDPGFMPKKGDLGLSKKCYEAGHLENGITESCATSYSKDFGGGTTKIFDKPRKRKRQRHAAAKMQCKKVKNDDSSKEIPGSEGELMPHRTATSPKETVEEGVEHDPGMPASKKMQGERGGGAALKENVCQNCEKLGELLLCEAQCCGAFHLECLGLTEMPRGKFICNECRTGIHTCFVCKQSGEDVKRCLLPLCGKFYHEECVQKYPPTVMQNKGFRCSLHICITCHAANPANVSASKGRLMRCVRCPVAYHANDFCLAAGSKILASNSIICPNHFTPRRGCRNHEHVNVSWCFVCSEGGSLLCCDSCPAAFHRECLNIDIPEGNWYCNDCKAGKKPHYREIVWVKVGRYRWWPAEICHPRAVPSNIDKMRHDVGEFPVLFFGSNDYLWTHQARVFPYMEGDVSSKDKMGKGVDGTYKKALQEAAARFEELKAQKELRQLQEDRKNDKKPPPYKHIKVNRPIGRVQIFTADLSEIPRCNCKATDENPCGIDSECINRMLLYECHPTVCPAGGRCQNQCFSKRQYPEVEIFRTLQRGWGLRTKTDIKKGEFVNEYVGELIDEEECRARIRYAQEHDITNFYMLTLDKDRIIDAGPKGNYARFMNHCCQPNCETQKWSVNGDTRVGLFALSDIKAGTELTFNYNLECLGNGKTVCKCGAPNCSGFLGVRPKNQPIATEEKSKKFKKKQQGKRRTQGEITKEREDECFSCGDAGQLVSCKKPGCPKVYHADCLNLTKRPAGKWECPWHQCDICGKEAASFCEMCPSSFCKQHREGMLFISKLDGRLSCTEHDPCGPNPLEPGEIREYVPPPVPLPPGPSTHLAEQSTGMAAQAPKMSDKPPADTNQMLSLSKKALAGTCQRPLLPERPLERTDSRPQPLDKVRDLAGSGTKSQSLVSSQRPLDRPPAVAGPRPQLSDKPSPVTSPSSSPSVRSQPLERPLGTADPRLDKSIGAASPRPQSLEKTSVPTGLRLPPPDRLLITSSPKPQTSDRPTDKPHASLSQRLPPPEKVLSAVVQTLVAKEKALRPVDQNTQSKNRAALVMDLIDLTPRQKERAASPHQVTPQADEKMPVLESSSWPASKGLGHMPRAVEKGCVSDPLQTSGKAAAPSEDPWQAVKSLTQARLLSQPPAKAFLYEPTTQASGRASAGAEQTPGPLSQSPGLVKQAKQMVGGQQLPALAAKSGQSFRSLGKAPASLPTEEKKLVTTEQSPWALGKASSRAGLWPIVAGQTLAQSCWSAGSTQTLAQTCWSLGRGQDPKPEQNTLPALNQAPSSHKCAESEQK
Sequence of Histone-lysine N-methyltransferase NSD2 (Homo sapiens, UniProt O96028, E1099K) (O96028 whole entry E1099K): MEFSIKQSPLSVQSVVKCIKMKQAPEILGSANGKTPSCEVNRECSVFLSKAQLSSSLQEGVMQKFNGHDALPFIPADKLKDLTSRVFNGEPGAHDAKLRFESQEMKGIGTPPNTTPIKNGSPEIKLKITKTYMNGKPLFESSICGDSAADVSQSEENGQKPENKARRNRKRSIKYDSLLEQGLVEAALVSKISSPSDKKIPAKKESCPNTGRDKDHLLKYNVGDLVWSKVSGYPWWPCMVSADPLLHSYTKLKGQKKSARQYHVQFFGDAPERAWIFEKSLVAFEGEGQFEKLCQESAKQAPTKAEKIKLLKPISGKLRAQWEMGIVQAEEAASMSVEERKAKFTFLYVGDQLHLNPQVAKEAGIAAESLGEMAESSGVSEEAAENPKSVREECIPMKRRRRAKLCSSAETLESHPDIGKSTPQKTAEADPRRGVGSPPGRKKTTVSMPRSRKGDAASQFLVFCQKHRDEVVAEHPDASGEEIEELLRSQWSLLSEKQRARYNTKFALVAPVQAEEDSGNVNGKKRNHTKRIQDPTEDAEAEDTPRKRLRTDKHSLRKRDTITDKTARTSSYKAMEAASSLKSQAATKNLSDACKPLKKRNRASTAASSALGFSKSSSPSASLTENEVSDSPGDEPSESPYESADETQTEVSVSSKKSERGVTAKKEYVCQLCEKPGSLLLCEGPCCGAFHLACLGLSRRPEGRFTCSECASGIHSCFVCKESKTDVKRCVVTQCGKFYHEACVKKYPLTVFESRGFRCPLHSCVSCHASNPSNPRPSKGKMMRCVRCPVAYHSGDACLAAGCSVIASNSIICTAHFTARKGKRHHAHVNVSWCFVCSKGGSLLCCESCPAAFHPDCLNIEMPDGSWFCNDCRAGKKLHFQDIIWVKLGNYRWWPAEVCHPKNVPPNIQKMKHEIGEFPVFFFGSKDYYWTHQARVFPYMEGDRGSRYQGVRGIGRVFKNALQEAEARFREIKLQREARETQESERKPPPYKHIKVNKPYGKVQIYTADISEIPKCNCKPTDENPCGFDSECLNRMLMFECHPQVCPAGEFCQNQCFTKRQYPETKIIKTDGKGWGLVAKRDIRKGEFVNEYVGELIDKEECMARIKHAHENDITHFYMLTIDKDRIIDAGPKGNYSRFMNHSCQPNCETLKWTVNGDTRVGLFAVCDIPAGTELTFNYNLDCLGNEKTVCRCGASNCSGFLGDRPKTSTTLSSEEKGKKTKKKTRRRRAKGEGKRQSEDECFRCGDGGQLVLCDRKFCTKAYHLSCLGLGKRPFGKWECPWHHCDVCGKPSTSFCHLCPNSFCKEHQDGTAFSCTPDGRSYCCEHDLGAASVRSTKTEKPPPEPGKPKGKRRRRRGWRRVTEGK
Sequence of Histone-lysine N-methyltransferase NSD2 (Homo sapiens, UniProt O96028, T1150A) (O96028 whole entry T1150A): as the sequence (O96028 whole entry E1099K) above, with K1099E, T1150A counted along it

SMILES: N=C(N)NCCC[C@H](N)C(=O)NCCCCCCNC(=O)c1ccc(NC(=O)c2ccc(CN(C(=O)c3ccc4c(c3)OCC(=O)N4)C3CC3)cc2)cc1
Emax [1]: 81%
EC50 [2]: 1200 nM
Kd [3]: 14 nM

SMILES: COc1ccc(-c2cc(Cn3cnc4c(N)ncnc43)c(N3CCC[C@](N)(COC4CCC4)C3)cn2)cc1F
IC50 [4]: 270 nM

SMILES: COC[C@@]1(N)CCCN(c2cnc(-c3cc(Cl)ccc3F)cc2Cn2cnc3c(N)ncnc32)C1
IC50 [4]: 248 nM

SMILES: CCN(CC)CCCC(C)Nc1ccnc2cc(Cl)ccc12 (stereo unspecified) [CHLOROQUINE PHOSPHATE]
Kd [7]: 4700 nM

SMILES: CCN(CC)CCCC(C)Nc1c2ccc(Cl)cc2nc2ccc(OC)cc12 (stereo unspecified) [QUINACRINE DIHYDROCHLORIDE]
Kd [7]: 1400 nM

SMILES: O=C1C(Cl)=C(NCCN2CCOCC2)C(=O)c2ncccc21
IC50 [8]: 170 nM
IC50 [9]: 110 nM
CC50 [10]: 270 nM

SMILES: Cn1nnc2cc(NC(=O)Nc3cccc([N+](=O)[O-])c3)ccc21
IC50 [15]: 8300 nM

The remaining lines, values ahead:

inhibition [5]: 96%
SMILES: O=C(Nc1cccc([N+](=O)[O-])c1)Nc1ccc2nnsc2c1

Kd [6]: 3400 nM
SMILES: O=C1COc2cc(C(=O)N(Cc3cccs3)C3CC3)ccc2N1

Kd [7]: 1200 nM
SMILES: O=C1c2c(O)ccc(O)c2C(=O)C2C(NCCNCCO)=CC=C(NCCNCCO)C12 (stereo unspecified)

inhibition [5]: 99%
SMILES: CC(=O)c1ccc(-c2cc(NC(=O)Nc3ccc4nnsc4c3)cc(C(F)(F)F)c2)s1

inhibition [11]: 79%
inhibition [12]: 85%
inhibition [13]: 97%
inhibition [5]: 95%
IC50 [14]: < 10000 nM
SMILES: COC(=O)c1cc(NC(=O)Nc2ccc3nnsc3c2)cc(C(=O)OC)c1

inhibition [5]: 92%
SMILES: C=CC(=O)Nc1cc(NC(=O)Nc2ccc3nnsc3c2)cc(C(=O)OC)c1
